Measurements published in patent publication US8071780B2, “2-Hydroxymethyl-3,4,5-trihydroxy-1-benzilpiperidine derivatives as inhibitors of glucosylceramide” (Actelion Pharmaceuticals Ltd., priority 2003, dated 2011).

Assays:
[1] = target: T1, non-lysosomal-β-glucocerebrosidase (Homo sapiens, UniProt Q9HCG7); assay: Inhibition of non-lysosomal-β-glucocerebrosidase; format: biochemical; settings: whole cell extracts of MCF7 as enzyme source; 5 mM 4-MU β-glucoside; pH 5.8
T1 construct: whole cell extracts of MCF7 (a human breast carcinoma cell line) was used as the source of the enzyme; endogenous in cells; host or cells: MCF7 whole cell extract
T1 sequence (Q9HCG7 1-927): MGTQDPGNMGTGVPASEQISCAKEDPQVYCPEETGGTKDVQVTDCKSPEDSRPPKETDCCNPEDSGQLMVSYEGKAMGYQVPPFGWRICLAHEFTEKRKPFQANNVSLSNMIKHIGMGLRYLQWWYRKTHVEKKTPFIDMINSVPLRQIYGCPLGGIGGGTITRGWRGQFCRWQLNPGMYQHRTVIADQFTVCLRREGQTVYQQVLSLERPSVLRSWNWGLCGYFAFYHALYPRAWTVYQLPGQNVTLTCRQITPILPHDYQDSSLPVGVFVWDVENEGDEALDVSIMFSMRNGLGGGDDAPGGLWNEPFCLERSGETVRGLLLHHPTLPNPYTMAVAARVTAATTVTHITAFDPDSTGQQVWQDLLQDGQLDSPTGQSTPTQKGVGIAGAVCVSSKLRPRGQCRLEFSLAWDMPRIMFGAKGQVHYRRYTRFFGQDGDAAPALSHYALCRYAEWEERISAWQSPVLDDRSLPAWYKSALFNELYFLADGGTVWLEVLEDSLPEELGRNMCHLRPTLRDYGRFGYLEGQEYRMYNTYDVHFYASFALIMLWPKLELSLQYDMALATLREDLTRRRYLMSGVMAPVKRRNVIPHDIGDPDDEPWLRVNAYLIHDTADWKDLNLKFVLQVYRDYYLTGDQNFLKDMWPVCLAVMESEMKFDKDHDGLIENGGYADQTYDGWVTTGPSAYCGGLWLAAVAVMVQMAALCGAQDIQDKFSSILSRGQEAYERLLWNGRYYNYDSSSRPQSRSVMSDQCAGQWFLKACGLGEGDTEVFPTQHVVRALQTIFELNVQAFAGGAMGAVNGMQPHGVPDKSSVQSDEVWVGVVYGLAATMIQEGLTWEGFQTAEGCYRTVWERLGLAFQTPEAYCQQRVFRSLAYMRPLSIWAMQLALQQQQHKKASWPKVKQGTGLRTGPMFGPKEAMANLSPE
Method: Inhibition of non-lysosomal-β-glucocerebrosidase
The assay for inhibition of non-lysosomal-β-glucocerebrosidase was essentially carried out as described in Overkleeft, H. S. et al., J. Biol. Chem. (1998) 273, 26522-26527 with the following differences: whole cell extracts of MCF7 (a human breast carcinoma cell line) was used as the source of the enzyme instead of splenic membrane suspensions; 5 mM instead of 3 mM, 4-MU β-glucoside was used as substrate and 0.2M citrate/phosphate (pH 5.8) was used instead of McIlvaine buffer.

[2] = target: T2, human recombinant GCS expressed in insect cells (Homo sapiens, UniProt Q16739); assay: Inhibition of GCS (glucosylceramide synthase); format: biochemical
T2 construct: made in house; host or cells: insect cells
T2 sequence (Q16739 1-394): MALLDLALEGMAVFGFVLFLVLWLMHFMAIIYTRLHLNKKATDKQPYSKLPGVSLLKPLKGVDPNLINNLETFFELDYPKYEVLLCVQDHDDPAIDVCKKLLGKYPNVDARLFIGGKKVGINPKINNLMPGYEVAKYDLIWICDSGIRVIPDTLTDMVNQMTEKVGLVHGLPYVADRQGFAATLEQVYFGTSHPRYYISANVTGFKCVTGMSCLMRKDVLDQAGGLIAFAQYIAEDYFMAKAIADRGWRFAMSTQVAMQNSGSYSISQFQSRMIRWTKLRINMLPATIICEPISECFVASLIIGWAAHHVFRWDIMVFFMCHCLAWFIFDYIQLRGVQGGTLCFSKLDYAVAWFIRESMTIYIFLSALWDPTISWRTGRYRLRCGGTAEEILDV
Method: The assay for inhibition of GCS was performed essentially as described in Platt et al., J. Biol. Chem., (1994), 269, 27108, the enzyme source being human recombinant GCS expressed in insect cells.

human GCS = target: T3, human GCS (Homo sapiens, UniProt Q16739); assay: Cell-based IC50 for GCS inhibition by measuring glucosylceramide (GlcCer) depletion; settings: MCF-7 cells cultured 5-7 days with compound; GlcCer depletion by HPTLC; read-out: Inhibition of GCS Cellular-based (IC50 μM)
T3 construct: endogenous in cells; host or cells: MCF-7
T3 sequence (Q16739 1-394): T2 sequence (Q16739 1-394)
Method: Estimating the Cell-Based IC50 for GCS Inhibition by Measuring Glucosylceramide (GlcCer) Depletion
Human mammary epithelial cells (MCF-7) were cultured for 5-7 days, with varying concentrations of a compound of the invention to be tested (0; 0.01; 0.05; 0.25; 1.25 and 6.25 μM). The cells were harvested and the total cellular lipids extracted. Neutral glycolipids were separated by partitioning in a DIPE/1-butanol/saline suspension, according to methods well known to those skilled in the art. The neutral glycolipid extracts were then separated by High-Performance Thin Layer Chromatography (HPTLC), using non-polar TLC conditions (chloroform:methanol: 0.2% CaCl2; 65:35:8), according to methods well known to those skilled in the art. GlcCer bands were visualized and the TLC plates were scanned immediately. Scion Image software was then used to quantify GlcCer in the samples relative to a GlcCer standard. This enabled a cell-based IC50 to be calculated for compounds of the invention for GCS inhibition.

IC50 (human GCS) [µM]	SMILES	IC50 [1] [µM]	IC50 [2] [µM]
–	CCCCOc1ccc(CN2C[C@H](O)[C@@H](O)[C@H](O)[C@@H]2CO)cc1 [Example 2, 3,4,5-Piperidinetriol, 1-[(4-butoxyphenyl)methyl]-2-(hydroxymethyl)-, (2S,3R,4R,5S)]	0.004	0.42
~0.015	CCCCCOc1ccc(CN2C[C@H](O)[C@@H](O)[C@H](O)[C@@H]2CO)cc1 [Example 1, 3,4,5-Piperidinetriol, 2-(hydroxymethyl)-1-[(4-pentyloxyphenyl)methyl]-, (2S,3R,4R,5S)]	0.001	0.15
